This is an account of results in publication PMC12456999, “Sulfonyl Homoserine Lactones Are Tunable Probes to Inhibit the Quorum Sensing Receptor RhlR and Reduce Swarming Motility in Pseudomonas aeruginosa” (ACS Infectious Diseases, 2025).

Marks after values point to notes of the source that are not given here.

T1 sequence (P54292 whole entry): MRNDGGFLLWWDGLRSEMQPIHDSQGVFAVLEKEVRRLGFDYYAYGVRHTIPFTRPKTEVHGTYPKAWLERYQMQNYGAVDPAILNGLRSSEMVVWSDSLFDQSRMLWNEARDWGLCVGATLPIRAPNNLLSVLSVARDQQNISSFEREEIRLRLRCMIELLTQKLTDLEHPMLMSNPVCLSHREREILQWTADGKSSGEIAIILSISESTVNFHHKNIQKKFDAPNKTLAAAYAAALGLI

One assay has as its target T1, RhlR (Pseudomonas aeruginosa, UniProt P54292).
T1 construct: expressed in transfected cells; host or cells: E. coli JLD271 (K-12 ΔlacX74 sdiA271::Cam) carrying pJN105-R2 (RhlR expression) and pSC11-rhlI (rhlI'-lacZ reporter)
Description: E. coli (JLD271) RhlR reporter antagonism assay, in competition with BHL. The format is cell-based. The note with it: 33 vs 16; 43 vs 24; 86 vs 45; E. coli RhlR reporter IC50. The method, then: To start, the sulfonyl HLs were evaluated for their ability to antagonize RhlR using a previously described E. coli strain (JLD271) harboring a RhlR expression plasmid and a rhlI reporter plasmid. This E. coli reporter produces RhlR, and protein activity in the presence of an added small molecule can be measured via the production of β-galactosidase as quantified via luminescence (see Methods). Compounds were screened in competition against RhlR’s native ligand, BHL (at its EC50 value in this strain, 10 μM), over a range of concentrations to generate antagonism dose–response curves (see Supporting Information) and calculate IC50 values (listed in Table ). A small set of compounds was also screened for RhlR agonism in the E. coli reporter; the agonism assay format was identical to the antagonism assay, except no BHL was added.
RhlR activity in E. coli strain JLD271 (ΔsdiA) was measured via a β-galactosidase reporter (rhI-lacZ) using the Promega Beta-Glo Assay System as previously described. RhlR activity in P. aeruginosa PA14 (ΔrhlIΔlasI) was measured via a GFP reporter (rhlA-gfp). […] See Supporting Information for both reporter protocols.
Supporting Information — Aguirre-Figueroa et al.
E. coli and P. aeruginosa RhlR reporter assay protocols.
E. coli RhlR reporter assay. RhlR activity in E. coli strain JLD271 (ΔsdiA) was measured via a β-galactosidase reporter using the Promega Beta-Glo® Assay System as previously described.10 A schematic of the reporter plasmids and assay protocol is shown in Scheme S1. Briefly, a single colony of E. coli JLD271 harboring the RhlR expression plasmid pJN105-R and the rhlI-lacZ transcriptional fusion reporter pSC11-R (Table S1) was grown in LB medium with 100 μg/mL ampicillin and 10 μg/mL gentamicin overnight (~16 h). The culture was diluted 1:10 in fresh LB medium and grown to an OD600 = 0.25 (0.23–0.28) (~0.5 h). Arabinose was added to a final concentration of 4 mg/mL to induce the expression of pJN105-R. Aliquots (2 μL) of compound DMSO stock solution or serial dilution were added to the inner wells (i.e., non-periphery rows) of a 96-well microtiter plate. To six inner wells, DMSO alone (vehicle) was added as a negative control. For agonism assays, BHL was added to six inner wells as a positive control (to achieve 1 mM). For antagonism assays, BHL was added to six inner wells as a positive control and to all of the other sample wells except for the vehicle control wells (to achieve 10 μM ). Subculture (198 μL) was then dispensed into each inner well. To the outer (periphery) wells, 200 μL of water were added to maintain humidity during incubation. Plates were then incubated for 4 h (shaking) at 37 °C.
Scheme S1. Schematic of E. coli reporter plasmids and assay. (A) Representation of plasmids used in the heterologous reporter system. (B) General reporter assay workflow. BioRender used in […]
After the incubation period, the OD600 of each well was measured using a plate reader. Cell dilution plates were prepared by transferring 10 μL from the incubated culture plate wells to a fresh 96-well plate and adding 90 μL of 18 MΩ water to each well. Next, 10 μL aliquots of diluted Beta-Glo® reagent (1:2 with 18 MΩ water) were added to each well of a white 384-well microtiter plate, followed by 10 μL of culture from each well of the dilution plate. The 384-well plate was incubated (without shaking; i.e., static) for 30 min at 30 °C. After incubation, luminescence of each well was measured using a plate reader. To determine levels of RhlR activity, raw luminescence was divided by OD600 to correct for growth variation and then normalized to the negative (0%) and positive (100%) control wells.
Dose-response reporter assay data for compounds in the E. coli RhlR reporter.
Dose-response curves for RhlR antagonism by compounds against 10 μM BHL using the E. coli JLD271 RhlR reporter are provided below. Compound names are indicated on the x-axis of each plot.
All assays performed in triplicate as at least three separate biological replicates. […]
The molecule `O=C1OCC[C@@H]1NS(=O)(=O)c1cc(F)c(F)c(F)c1` [Compound 86, 3,4,5-F BSHL] displayed a potency gain not above 40 fold.

The assay is the same for the next values; noted with them: E. coli JLD271 RhlR reporter; against 10 μM BHL.
Molecule `CCCCCCS(=O)(=O)N[C@H]1CCOC1=O` [Compound 18] displayed an IC50 of 36.4 µM.
The same measure, in the same setting: the figure for `CCCCS(=O)(=O)N[C@H]1CCOC1=O` [Compound 74] is 35.2 µM.

Staying with this assay, now noted: E. coli RhlR reporter IC50.
`O=C1OCC[C@@H]1NS(=O)(=O)Cc1ccc(Br)cc1` [Compound 19, 4-Br BnSHL]: the “fold more potent in RhlR than 13 or 16” value was “approximately 3 fold”.
In the case of `O=C1OCC[C@@H]1NS(=O)(=O)Cc1ccc(Cl)cc1` [Compound 21, 4-Cl BnSHL], the “fold more potent in RhlR than 13 or 16” value is reported as “approximately 3 fold”.
`O=C1OCC[C@@H]1NS(=O)(=O)Cc1ccc(F)cc1` [Compound 22, 4-F BnSHL]: the “fold more potent in RhlR than 13 or 16” value is recorded as “approximately 3 fold”.
`O=C1OCC[C@@H]1NS(=O)(=O)c1cccc(Cl)c1` [Compound 28, 3-chloro-BSHL]: the “fold more potent than 26 and 27” value stood at 3 fold.
For `O=C1OCC[C@@H]1NS(=O)(=O)c1cccc(Cl)c1Cl` [Compound 42, 2,3-di-Cl BSHL], the “fold lower IC50 value than 3-Cl BSHL (28)” value is “over 2 fold”.
With `O=C1OCC[C@@H]1NS(=O)(=O)c1ccc(Cl)c(Cl)c1Cl` [Compound 45, 2,3,4-tri-Cl BSHL], the “reduction of potency relative to 3,4-Cl BSHL (43)” value is reported as “at least 2 orders of magnitude”.
Turning to `O=C1OCC[C@@H]1NS(=O)(=O)c1ccc(Br)c(Cl)c1` [Compound 73, 3-Cl, 4-Br BSHL], the “fold less potent than 43” value is given as “over 2 fold”.
In the case of `O=C1OCC[C@@H]1NS(=O)(=O)c1cc(F)c(F)c(F)c1` [Compound 86, 3,4,5-F BSHL], the “fold higher potency relative to 3,4-di-Cl BSHL (43)” value is recorded as “over 2 fold”.
On the same count and under the same terms, under `O=C1OCC[C@@H]1NS(=O)(=O)c1cc(Cl)c(F)c(Cl)c1` [Compound 87, 3,5-Cl-4F BSHL] stands “no change in potency”.

Still in this assay, the particulars now being: E. coli RhlR reporter IC50; comparator printed as 19.
As for `Cc1ccc(CS(=O)(=O)N[C@H]2CCOC2=O)cc1` [Compound 13, 4-Me BnSHL], the “fold less potent than parent 4-Me PHL” value is approximately 170 fold.

The same assay, now with this note: E. coli RhlR reporter dose-response curves.
For the molecule `CCCS(=O)(=O)N[C@H]1CCOC1=O` [Compound 72, C3-AHSL], the “activity profile in RhlR” value is “weak partial agonist”.

Still in this assay, the particulars now being: E. coli RhlR reporter; BHL at 10 μM set to 0%, media control set to 100%.
Consider `Cc1ccc(CS(=O)(=O)N[C@H]2CCOC2=O)cc1` [Compound 13, 4-Me BnSHL], for which the “max. RhlR inhibition (%)” value amounted to 90%.
Same read-out and setting: the figure for `O=C1OCC[C@@H]1NS(=O)(=O)Cc1ccc([N+](=O)[O-])cc1` [Compound 16, 4-NO2 BnSHL] is 97%; for `CCCCCCS(=O)(=O)N[C@H]1CCOC1=O` [Compound 18] it is 77%; for `O=C1OCC[C@@H]1NS(=O)(=O)Cc1ccc(Br)cc1` [Compound 19, 4-Br BnSHL] it is 77%.
For `O=C1OCC[C@@H]1NS(=O)(=O)Cc1ccc(Cl)cc1` [Compound 21, 4-Cl BnSHL], the “max. RhlR inhibition (%)” value came to 99%.
In the case of `O=C1OCC[C@@H]1NS(=O)(=O)Cc1ccc(F)cc1` [Compound 22, 4-F BnSHL], the “max. RhlR inhibition (%)” value was determined as 94%.
On the same count and under the same terms, the figure for `O=C1OCC[C@@H]1NS(=O)(=O)c1ccc(Cl)cc1Cl` [Compound 24, 2,4-di-Cl-BSHL] is 99%; for `O=C1OCC[C@@H]1NS(=O)(=O)c1ccc(Cl)cc1` [Compound 26] it is 96%.
With `O=C1OCC[C@@H]1NS(=O)(=O)c1cccc(Cl)c1` [Compound 28, 3-chloro-BSHL], the “max. RhlR inhibition (%)” value turned out to be 97%.
The same measure, in the same setting: the figure for `O=C1OCC[C@@H]1NS(=O)(=O)c1cccc(Cl)c1Cl` [Compound 42, 2,3-di-Cl BSHL] is 95%; for `O=C1OCC[C@@H]1NS(=O)(=O)c1ccc(Cl)c(Cl)c1Cl` [Compound 45, 2,3,4-tri-Cl BSHL] it is 80%.
Same read-out and setting: under `CCCS(=O)(=O)N[C@H]1CCOC1=O` [Compound 72, C3-AHSL] stands 45 ^f %; under `O=C1OCC[C@@H]1NS(=O)(=O)c1ccc(Br)c(Cl)c1` [Compound 73, 3-Cl, 4-Br BSHL], 98%.
Still for that read-out and setting: the figure for `CCCCS(=O)(=O)N[C@H]1CCOC1=O` [Compound 74] is 70%; for `O=C1OCC[C@@H]1NS(=O)(=O)c1cc(F)c(F)c(F)c1` [Compound 86, 3,4,5-F BSHL] it is 80%; for `O=C1OCC[C@@H]1NS(=O)(=O)c1cc(Cl)c(F)c(Cl)c1` [Compound 87, 3,5-Cl-4F BSHL] it is 85%.

Staying with this assay, now noted: IC50, E. coli JLD271 RhlR reporter; against 10 μM BHL.
As to `Cc1ccc(CS(=O)(=O)N[C@H]2CCOC2=O)cc1` [Compound 13, 4-Me BnSHL], the IC50 stood at 918 µM.
On the same count and under the same terms, the figure for `O=C1OCC[C@@H]1NS(=O)(=O)Cc1ccc([N+](=O)[O-])cc1` [Compound 16, 4-NO2 BnSHL] is 1290 µM; for `O=C1OCC[C@@H]1NS(=O)(=O)Cc1ccc(Br)cc1` [Compound 19, 4-Br BnSHL] it is 348 µM; for `O=C1OCC[C@@H]1NS(=O)(=O)Cc1ccc(Cl)cc1` [Compound 21, 4-Cl BnSHL] it is 219 µM.
On to `O=C1OCC[C@@H]1NS(=O)(=O)Cc1ccc(F)cc1` [Compound 22, 4-F BnSHL], for which the IC50 was 205 µM.
For the molecule `O=C1OCC[C@@H]1NS(=O)(=O)c1ccc(Cl)cc1Cl` [Compound 24, 2,4-di-Cl-BSHL], the IC50 came to 1590 µM.
In the case of `O=C1OCC[C@@H]1NS(=O)(=O)c1ccc(Cl)cc1` [Compound 26], the IC50 was determined as 452 µM.
The same measure, in the same setting: the figure for `O=C1OCC[C@@H]1NS(=O)(=O)c1cccc(Cl)c1` [Compound 28, 3-chloro-BSHL] is 143 µM; for `O=C1OCC[C@@H]1NS(=O)(=O)c1cccc(Cl)c1Cl` [Compound 42, 2,3-di-Cl BSHL] it is 67.8 µM; for `O=C1OCC[C@@H]1NS(=O)(=O)c1ccc(Cl)c(Cl)c1Cl` [Compound 45, 2,3,4-tri-Cl BSHL] it is 1030 µM.
Same read-out and setting: the figure for `O=C1OCC[C@@H]1NS(=O)(=O)c1ccc(Br)c(Cl)c1` [Compound 73, 3-Cl, 4-Br BSHL] is 118 µM; for `O=C1OCC[C@@H]1NS(=O)(=O)c1cc(F)c(F)c(F)c1` [Compound 86, 3,4,5-F BSHL] it is 24.5 µM.
On the same count and under the same terms, under `O=C1OCC[C@@H]1NS(=O)(=O)c1cc(Cl)c(F)c(Cl)c1` [Compound 87, 3,5-Cl-4F BSHL] stands 68 µM.

The assay is the same for the next values; noted with them: read-out: inhibitory potency on average (74, 75 and 18); average over the C4, C5 and C6 ASHLs; E. coli RhlR reporter.
`CCCCCCS(=O)(=O)N[C@H]1CCOC1=O` [Compound 18]: the IC50 is approximately 28 µM.
The same measure, in the same setting: under `CCCCS(=O)(=O)N[C@H]1CCOC1=O` [Compound 74] stands approximately 28 µM.

A further assay concerns bacterial growth. The assay can be described thus: Effect on bacterial growth (OD600 over time). The format is cell-based. The following applies: at >2 mM concentrations. The method, then:
All new compounds were fully characterized for purity and identity (see Supporting Information). […] The remaining compounds had no effect on growth over the concentration range tested. All compounds were tested in bacteriological assays in triplicate and in at least three separate trials using unique cultures. IC50 and EC50 values in reporter assays were calculated using GraphPad Prism software (version 9.0) with a variable slope sigmoidal curve fit.
In the case of `O=C1OCC[C@@H]1NS(=O)(=O)c1ccc(Cl)cc1` [Compound 26], the “effect on bacterial growth” value is given as “modest effect on bacterial growth”.
